SMILES strings stand for the structures. Entries after “also recorded” stand apart in the source; their conditions may differ. Where a name gives a salt, the structure may show the parent alone. Read-outs that look alike come from different tables or passages of the source.

The values that follow come from PMC8238948, “Potent inhibitors of toxic alpha-synuclein identified via cellular time-resolved FRET biosensors” (NPJ Parkinson's Disease, 2021).

Data set [1] addresses T1, recombinant αSN (Homo sapiens, UniProt P37840).
T1 construct: made in house; host or cells: Escherichia coli BL21(DE3), T7-7 plasmid
Nature of the data set: Non-seeded Thioflavin-T assay (monomer induced aggregation). Format: biochemical. The settings on record: 140 μM αSN monomer, 70 μM compound (1:2), 900 RPM, 37 °C. On the procedure: ThT aggregation assays monitor the kinetics and extent of fibril formation due to spontaneous and seeded aggregation[26],[92]–[95]. The cascade of spontaneous αSN fibrillization includes formation and maturation of oligomeric αSN assemblies[96],[97]. Figure 10 presents spontaneous ThT aggregation for αSN(m) (140 µM) with or without hit compounds RO, DEM, and Bay (70 µM; a sub-stoichiometric ratio, 1:2, compound:protein).
Fig. 10 Monomer induced aggregation of αSN (non-seeded Thioflavin-T assay). Recombinant αSN was incubated at 140 μM monomer (70 μM compound) under continuous shaking (900 RPM) at 37 °C. All three hit compounds modulated αSN fibrillization with RO having a more significant effect over Bay and DEM, respectively.
ThT (Sigma, product no. T3516) was dissolved in PBS buffer and was filtered through a 0.2-µm syringe filter to make a stock solution of 2.5 mM. Working ThT concentration was 20 µM. PFF seeds were produced via constant agitation of 1000 RPM at 37 °C (ThermoMixer-C, Eppendorf, Hauppauge, NY) of 500 µL of 350 µM αSN in PBS in a 2 mL tube for 5 days. PFFs were aliquoted and flash frozen and stored at −80 °C until further use. PFF seeds were rapidly thawed, diluted to 35 µM in PBS, and sonicated 120 pulses at 50% using a probe-tip sonicator following the established protocols. Master mix samples for each of the different ThT assays were prepared and dispensed in triplicate as 50 µL in 384-well flat, black-bottom polypropylene plates (PN 781209, Greiner Bio-One) and sealed with fluorescently transparent film. Conditions for non-seeded, seeded, and cell homogenate assays varied slightly.
Non-seeded ThT master mix was prepared in cell culture PBS with 140 µM (2 mg/mL) αSN(m) and dispensed into compound plates at 70 µM final compound concentration (1:2 compound:protein ratio).

The test system of data set [2] is SH-SY5Y cells overexpressing unlabeled wild-type (WT) αSN. Nature of the data set: CytoTox-Glo cytotoxicity assay: rescue of αSN-induced cytotoxicity. Particulars: for EC50: read-out: EC50, protection of SH-SY5Y cells from αSN-induced death; for rescue of αSN-induced cytotoxicity: dose response, 48-h exposure; for rescue of toxicity in three-dose preliminary screen: three-dose assay. The format is cell-based, human. On the procedure: Hit compounds were evaluated for rescue of αSN-induced cytotoxicity in using an SH-SY5Y neuroblastoma cell model of alpha-synucleinopathy[18],[69]–[72]. […] A seven-point CRC for RO, BAY, DEM, and Anle138b (positive control compound[41],[73]) was performed to determine IC50 for each compound. […]
Cell cytotoxicity was measured using the CytoTox-Glo (Promega Corporation) Luminescence Assay Kit. SH-SY5Y human neuroblastoma cells were plated at a density of 5 × 10^6 cells/plate in 100 mm plate (Corning) and transfected with unlabeled WT αSN or equivalent vector-only control for 24 h. The transfected cells were then plated at a density of 5000 cells/well in white solid 96-well plate (Corning) with a total volume of 100 μL, followed by treatment with hit compounds spanning a range of concentrations (0.1 nM to 100 μM), as well as DMSO-only controls, for another 48 h. After incubation, 50 μL of CytoTox-Glo Cytotoxicity Assay Reagent was added to all wells followed by mixing by orbital shaking and incubation in the dark for 15 min at RT. Luminescence readings were measured using a Cytation3 Cell Imaging Multi-Mode Reader luminometer (BioTek). After the first read, 50 μL of Lysis Reagent was added, incubated for 15 min at RT, and a second read performed. Total viable cellular luminance was determined by the difference between the first and second luminescence signal and total cellular viability is determined by normalizing to the no-treatment samples.

Data set [3] deals with T2, αSN oligomers (Homo sapiens, UniProt P37840).
T2 construct: made in house; host or cells: Escherichia coli BL21(DE3), T7-7 plasmid
Nature of the data set: ThT content (β-sheet) of αSN oligomers after oligomerization assay. Particulars: 70 μM compound (1:5 compound:monomer), 12 h oligomerization; vs DMSO. The format is biochemical. The method, then: To explore the presence of β-sheet content in these oligomers, an aliquot was removed prior to cross-linking, diluted into 100 μM ThT working solution, and ThT fluorescence was monitored to detect the presence of β-sheet. Supplementary Fig. 22 presents each sample ThT content normalized to the PFF signal. We observed an increased ThT content in the αSN oligomers (αS-O) that was not affected by DMSO (vehicle) treatment.
A 10-μL aliquot from each sample was taken and diluted with 290 μL ThT working solution (100 μM ThT in PBS) and dispensed into 3 wells of a 384-well, black opaque plate. Additional samples of PBS, αSN(m), and αSN PFF were used as controls. Plates were incubated at ambient temperature for 10 min and then fluorescence read at 450ex/490em on a Spectromax-i3x (Molecular Devices).
Supplemental Figure 22. Characterization of β-sheet content in αSN oligomers due to hit compound
After the 12-hour oligomerization assay aliquots of each sample were
removed and diluted in 100μM ThT and fluorescence read in triplicate (450ex/490em) in 384-well plates. The
ThT signal was normalized to a signal from previously frozen αSN PFF aliquots. After completion of the
PFF, green bar) and the ThT signal was not affected by DMSO (red bar). Oligomerization in the presence of
control compounds, EGCG and Baicalin, at 70μM (a sub-stoichiometric,1:5 compound: monomer ratio)
Our hit compounds RO, DEM, and BAY had differential effects with
both DEM and BAY resulting in increased ThT content and RO not producing a significant change relative to
(1 picture or pasted object on this page, not shown here)

For orientation: EC50 means the concentration giving half of the maximal effect. As a reminder, the IC50 is the concentration needed to halve the response being measured. Regarding `CN(C)[C@@H]1C(O)=C(C(N)=O)C(=O)[C@@]2(O)C(O)=C3C(=O)c4c(O)ccc(Cl)c4[C@@H](O)[C@H]3C[C@@H]12` [DEM, Demeclocycline HCl], the “ThT signal, spontaneous (non-seeded) aggregation” value in data set [1] is “lesser degrees of attenuation”. Further, the EC50 in data set [2] (Homo sapiens, SH-SY5Y, 72-h transfection, 48-h exposure to compound, seven-point CRC) came to 65 nM. Further, the IC50 in data set [2] (Homo sapiens, SH-SY5Y, 72-h transfection, 48-h exposure to compound, seven-point CRC, read-out: IC50, inhibition of αSN-induced toxicity) worked out at 65 nM. In data set [2], the “rescue of αSN-induced cytotoxicity” value is “clear dose-dependent rescue of toxicity” and the “rescue of toxicity in three-dose preliminary screen” value (“rescue of toxicity” for short) was “strong response”. Besides, the “ThT signal of αSN oligomers” value in data set [3] is “increased the ThT signal”.

As to `Nc1ccc(-c2nc3ccc(-c4nc5ccc(N)cc5[nH]4)cc3[nH]2)cc1` [RO, Ro 90–7501], in data set [1], the “ThT signal, spontaneous (non-seeded) aggregation” value is “significant ThT signal reduction”. Besides, the EC50 in data set [2] (72-h transfection, 48-h exposure to compound, seven-point CRC) was determined as 78 nM. In data set [2], the “rescue of αSN-induced cytotoxicity” value was “clear dose-dependent rescue of toxicity” and the “rescue of toxicity” value is given as “strong response”. Besides, the “ThT signal of αSN oligomers” value in data set [3] is “no effect”.

As for `COC(=O)C1=C(C)NC(C)=C([N+](=O)[O-])C1c1ccccc1C(F)(F)F` (racemic) [BAY, (±)-Bay K 8644], the “ThT signal, spontaneous (non-seeded) aggregation” value in data set [1] is “lesser degrees of attenuation”. In data set [2], the “rescue of αSN-induced cytotoxicity” value is on record as “reduced effect; also recorded: did not rescue” and the “rescue of toxicity” value was “only mild recovery”. Further, the “ThT signal of αSN oligomers” value in data set [3] is “increased the ThT signal”.
